Patent US9428464B2, “Kynurenine-3-monooxygenase inhibitors, pharmaceutical compositions, and methods of use thereof” (CHDI Foundation, Inc., priority 2011, dated 2016)

These molecules were tested on KMO (assay: KMO activity assay: L-Kynurenine hydroxylation to 3-Hydroxy-Kynurenine, quantified by LC/MS). Settings: compound at 10 uM; footnote: some portion of activity of amides may be due to contribution of acid precursor.
Format: biochemical
Outline: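 Enzyme: KMO from mitochondria isolated from CHO cells expressing GST-His-KMO, with L-kynurenine as substrate (stock 10 mM in 100 mM potassium phosphate, pH 7.4). Conversion to 3-hydroxy-kynurenine quantified by LC/MS multiple reaction monitoring; compound stocks 10 mM in DMSO.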
For `C[C@H](NC(=O)c1cc(-c2cccc(F)c2)ncn1)c1ccccc1` [6-(3-Fluoro-phenyl)-pyrimidine-4-carboxylic acid ((S)-1-phenyl-ethyl)-amide], the “% Inhibition at 10 uM” value was 90.15%. For `O=C(Nc1cncnc1)c1cc(-c2cccc(F)c2)ncn1` [6-(3-Fluoro-phenyl)-pyrimidine-4-carboxylic acid pyrimidin-5-yl-amide], the “% Inhibition at 10 uM” value was 81.88%. `Cc1ccc(NC(=O)c2cc(-c3ccc(Cl)c(F)c3)ncn2)c(C)n1` [6-(4-Chloro-3-fluoro-phenyl)-pyrimidine-4-carboxylic acid (2,6-dimethyl-pyridin-3-yl)-amide] was tested, and the “% Inhibition at 10 uM” value was 52.81%. With `C[C@H](NC(=O)c1cc(-c2ccc(Cl)c(F)c2)ncn1)c1ccccc1` [6-(4-Chloro-3-fluoro-phenyl)-pyrimidine-4-carboxylic acid ((S)-1-phenyl-ethyl)-amide] the “% Inhibition at 10 uM” value was 46.62%. For `C[C@H](NC(=O)c1cc(-c2ccc(Cl)cc2)ncn1)c1ccccc1` [6-(4-Chloro-phenyl)-pyrimidine-4-carboxylic acid ((S)-1-phenyl-ethyl)-amide], the “% Inhibition at 10 uM” value was 68.94%. With `O=C(Nc1cccnc1)c1cc(-c2ccc(Cl)cc2)ncn1` [6-(4-Chloro-phenyl)-pyrimidine-4-carboxylic acid pyridin-3-yl-amide] the “% Inhibition at 10 uM” value was 67.93%. In the case of `O=C(Nc1cncnc1)c1cc(-c2ccc(Cl)cc2)ncn1` [6-(4-Chloro-phenyl)-pyrimidine-4-carboxylic acid pyrimidin-5-ylamide], the “% Inhibition at 10 uM” value is reported as 56.49%. With `C[C@H](NC(=O)c1cc(-c2cc(Cl)ccc2F)ncn1)c1ccccc1` [6-(5-Chloro-2-fluoro-phenyl)-pyrimidine-4-carboxylic acid ((S)-1-phenyl-ethyl)-amide] the “% Inhibition at 10 uM” value was 68.66%. In the case of `O=C(Nc1cccnc1)c1cc(-c2cc(Cl)ccc2F)ncn1` [6-(5-Chloro-2-fluoro-phenyl)-pyrimidine-4-carboxylic acid pyridin-3-yl-amide], the “% Inhibition at 10 uM” value is reported as 84.21%. In the case of `O=C(O)c1cc(-c2ccc3ccccc3c2)ncn1` [6-Naphthalen-2-yl-pyrimidine-4-carboxylic acid], the “% Inhibition at 10 uM” value is reported as 96%. In the case of `N[C@@H](CCCCNC(=O)c1cc(-c2ccc(Cl)c(Cl)c2)ncn1)C(=O)O` [(2S)-2-amino-6-{[6-(3,4-dichlorophenyl)pyrimidin-4-yl]formamido}hexanoic acid], the “% Inhibition at 10 uM” value is reported as 85%. `O=C1NC(=O)[C@@H]2CN(C(=O)c3cc(-c4ccc(Cl)c(Cl)c4)ncn3)C[C@H]12` [(3aS,6aR)-5-[6-(3,4-Dichloro-phenyl)-pyrimidine-4-carbonyl]-tetrahydro-pyrrolo[3,4-c]pyrrole-1,3-dione] was tested, and the “% Inhibition at 10 uM” value was 95.73%. With `O=C(c1cc(-c2ccc(Cl)c(Cl)c2)ncn1)N1CCc2ccc(Cl)cc21` [(6-Chloro-2,3-dihydro-indol-1-yl)-[6-(3,4-dichloro-phenyl)-pyrimidin-4-yl]-methanone] the “% Inhibition at 10 uM” value was 98.22%. `N[C@H]1CCN(C(=O)c2cc(-c3ccc(Cl)c(Cl)c3)ncn2)C1` [((S)-3-amino-pyrrolidin-1-yl)-[6-(3,4-dichloro-phenyl)-pyrimidin-4-yl]-methanone] was tested, and the “% Inhibition at 10 uM” value was 93.99%. In the case of `NC(=O)[C@H]1CCCN1C(=O)c1cc(-c2ccc(Cl)c(Cl)c2)ncn1` [(R)-1-[6-(3,4-Dichloro-phenyl)-pyrimidine-4-carbonyl]-pyrrolidine-2-carboxylic acid amide], the “% Inhibition at 10 uM” value is reported as 101%. With `O=C(N[C@H](CO)C(=O)O)c1cc(-c2ccc(Cl)c(Cl)c2)ncn1` [(R)-2-{[6-(3,4-Dichloro-phenyl)-pyrimidine-4-carbonyl]-amino}-3-hydroxy-propionic acid] the “% Inhibition at 10 uM” value was 91.12%. `NC(=O)[C@@H]1CCCN1C(=O)c1cc(-c2ccc(Cl)c(Cl)c2)ncn1` [(S)-1-[6-(3,4-Dichloro-phenyl)-pyrimidine-4-carbonyl]-pyrrolidine-2-carboxylic acid amide] was tested, and the “% Inhibition at 10 uM” value was 99.05%. With `O=C(N[C@@H](CO)C(=O)O)c1cc(-c2ccc(Cl)c(Cl)c2)ncn1` [(S)-2-{[6-(3,4-Dichloro-phenyl)-pyrimidine-4-carbonyl]-amino}-3-hydroxy-propionic acid] the “% Inhibition at 10 uM” value was 101.22%. With `C[C@H](NC(=O)c1cc(-c2ccc(Cl)c(Cl)c2)ncn1)C(=O)O` [(S)-2-{[6-(3,4-Dichloro-phenyl)-pyrimidine-4-carbonyl]-amino}-propionic acid] the “% Inhibition at 10 uM” value was 100.865%. With `O=S(=O)(Nc1cc(-c2ccc(Cl)c(Cl)c2)ccn1)c1ccccc1` [N-[4-(3,4-dichlorophenyl)pyridin-2-yl]benzenesulfonamide] the “% Inhibition at 10 uM” value was 17%. For `Cc1ccc(S(=O)(=O)Nc2cc(-c3ccc(Cl)c(Cl)c3)ncn2)c(C)c1` [N-[6-(3,4-dichlorophenyl)pyrimidin-4-yl]-2,4-dimethylbenzene-1-sulfonamide], the “% Inhibition at 10 uM” value was 56%. With `O=S(=O)(Nc1cc(-c2ccc(Cl)c(Cl)c2)ncn1)c1ccccc1F` [N-[6-(3,4-dichlorophenyl)pyrimidin-4-yl]-2-fluorobenzene-1-sulfonamide] the “% Inhibition at 10 uM” value was 103%. For `O=S(=O)(Nc1cc(-c2ccc(Cl)c(Cl)c2)ncn1)c1cccc(OC(F)(F)F)c1` [N-[6-(3,4-dichlorophenyl)pyrimidin-4-yl]-3-(trifluoromethoxy)benzene-1-sulfonamide], the “% Inhibition at 10 uM” value was 100%. For `O=S(=O)(Nc1cc(-c2ccc(Cl)c(Cl)c2)ncn1)c1cccc(F)c1` [N-[6-(3,4-dichlorophenyl)pyrimidin-4-yl]-3-fluorobenzene-1-sulfonamide], the “% Inhibition at 10 uM” value was 102%. For `CN(c1cc(-c2ccc(Cl)c(Cl)c2)ncn1)S(=O)(=O)c1ccccc1` [N-[6-(3,4-dichlorophenyl)pyrimidin-4-yl]-N-methylbenzenesulfonamide], the “% Inhibition at 10 uM” value was 27%. In the case of `O=S(=O)(Nc1cc(-c2ccc(F)c(Cl)c2)ncn1)c1ccccc1` [N-[6-(3-Chloro-4-fluoro-phenyl)-pyrimidin-4-yl]-benzenesulfonamide], the “% Inhibition at 10 uM” value is reported as 98%. For `O=C(NS(=O)(=O)c1ccccc1)c1cc(-c2cccc(Cl)c2)ncn1` [N-[6-(3-Chloro-phenyl)-pyrimidine-4-carbonyl]-benzenesulfonamide], the “% Inhibition at 10 uM” value was 100.67%. In the case of `CS(=O)(=O)NC(=O)c1cc(-c2cccc(Cl)c2)ncn1` [N-[6-(3-Chloro-phenyl)-pyrimidine-4-carbonyl]-methanesulfonamide], the “% Inhibition at 10 uM” value is reported as 101.58%. In the case of `O=S(=O)(Nc1cc(-c2ccc(F)c(Cl)c2)ncn1)c1ccccc1F` [N-[6-(3-chloro-4-fluorophenyl)pyrimidin-4-yl]-2-fluorobenzene-1-sulfonamide], the “% Inhibition at 10 uM” value is reported as 100%. For `CC(=O)N[C@@H]1CCN(C(=O)c2cc(-c3ccc(Cl)c(Cl)c3)ncn2)C1` [N-{(R)-1-[6-(3,4-Dichloro-phenyl)-pyrimidine-4-carbonyl]-pyrrolidin-3-yl}-acetamide], the “% Inhibition at 10 uM” value was 98.55%. With `CN(C)CCC(=O)N[C@H]1CCN(C(=O)c2cc(-c3ccc(Cl)c(Cl)c3)ncn2)C1` [N-{(S)-1-[6-(3,4-Dichloro-phenyl)-pyrimidine-4-carbonyl]-pyrrolidin-3-yl}-3-dimethylamino-propionamide] the “% Inhibition at 10 uM” value was 91.785%. `CC(=O)N[C@H]1CCN(C(=O)c2cc(-c3ccc(Cl)c(Cl)c3)ncn2)C1` [N-{(S)-1-[6-(3,4-Dichloro-phenyl)-pyrimidine-4-carbonyl]-pyrrolidin-3-yl}-acetamide] was tested, and the “% Inhibition at 10 uM” value was 100.27%. `CN1CCN(C(=O)c2cc(-c3ccc(Cl)c(Cl)c3)ncn2)CC1` [[6-(3,4-Dichloro-phenyl)-pyrimidin-4-yl]-(4-methyl-piperazin-1-yl)-methanone] was tested, and the “% Inhibition at 10 uM” value was 94.86%. With `O=C(c1cc(-c2ccc(Cl)c(Cl)c2)ncn1)N1CCc2ccc(F)cc21` [[6-(3,4-Dichloro-phenyl)-pyrimidin-4-yl]-(6-fluoro-2,3-dihydro-indol-1-yl)-methanone] the “% Inhibition at 10 uM” value was 100.71%. With `C[C@@H]1CN(C(=O)c2cc(-c3ccc(Cl)c(Cl)c3)ncn2)C[C@H](C)N1.O=C(O)C(F)(F)F` [[6-(3,4-Dichloro-phenyl)-pyrimidin-4-yl]-((3S,5R)-3,5-dimethyl-piperazin-1-yl)-methanone, trifluoro-acetic acid salt] the “% Inhibition at 10 uM” value was 95.92%. For `O=C(c1cc(-c2ccc(Cl)c(Cl)c2)ncn1)N1CCC[C@@H](O)C1` [[6-(3,4-Dichloro-phenyl)-pyrimidin-4-yl]-((R)-3-hydroxy-piperidin-1-yl)-methanone], the “% Inhibition at 10 uM” value was 99.86%. With `O=C(c1cc(-c2ccc(Cl)c(Cl)c2)ncn1)N1CC[C@@H](O)C1` [[6-(3,4-Dichloro-phenyl)-pyrimidin-4-yl]-((R)-3-hydroxy-pyrrolidin-1-yl)-methanone] the “% Inhibition at 10 uM” value was 101.49%. For `O=C(c1cc(-c2ccc(Cl)c(Cl)c2)ncn1)N1CCC[C@H](O)C1` [[6-(3,4-Dichloro-phenyl)-pyrimidin-4-yl]-((S)-3-hydroxy-piperidin-1-yl)-methanone], the “% Inhibition at 10 uM” value was 99.98%. With `O=C(c1cc(-c2ccc(Cl)c(Cl)c2)ncn1)N1CCC(C(=O)N2CCOCC2)C1` (centres unmarked) [[6-(3,4-Dichloro-phenyl)-pyrimidin-4-yl]-[3-(morpholine-4-carbonyl)-pyrrolidin-1-yl]-methanone] the “% Inhibition at 10 uM” value was 90.83%. `O=C(c1cc(-c2ccc(Cl)c(Cl)c2)ncn1)N1CCN(C(=O)N2CCOCC2)CC1` [[6-(3,4-Dichloro-phenyl)-pyrimidin-4-yl]-[4-(morpholine-4-carbonyl)-piperazin-1-yl]-methanone] was tested, and the “% Inhibition at 10 uM” value was 40.38%. For `O=C(c1cc(-c2ccc(Cl)c(Cl)c2)ncn1)N1CCNCC1` [[6-(3,4-dichloro-phenyl)-pyrimidin-4-yl]-piperazin-1-yl-methanone], the “% Inhibition at 10 uM” value was 71.34%.
